Data as given in PubChem BioAssay AID1963986 (Molecular Pharmacology Branch, DTP, NCI, 2024).
Where “and” joins values, the source holds several entries; their conditions need not be identical. Equal values may be shown once.

Test system: 171881-019-R-J1-PDC tumor spheroid viability
Assay: Anticancer human tumor 171881-019-R-J1-PDC patient-derived invasive breast carcinoma cell line growth inhibition [PI3K]
Conditions: spheroids with HUVEC and MSC; for viability, T/C: stronger effect = lower value
Outline: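 Multi-cell spheroids combine tumor cells with HUVEC and human MSCs, treated with targeted agents alone or with inavolisib, alpelisib, duvelisib or copanlisib. Concentrations fall in half-log steps from at or near clinical Cmax, or from 10 microM where Cmax is unknown; viability read-out.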

[1] = curve of first compound, second compound 0.0316 µM
[2] = curve of first compound, second compound 0.1 µM
[3] = curve of first compound, second compound 0.316 µM
[4] = curve of first compound, second compound 1 µM
[5] = curve of first compound, second compound 3.16 µM
[6] = curve of first compound, second compound 10 µM
[7] = second compound 0.0316 µM, first compound 0.0316 µM
[8] = second compound 0.0316 µM, first compound 0.1 µM
[9] = second compound 0.0316 µM, first compound 0.316 µM
[10] = second compound 0.0316 µM, first compound 1 µM
[11] = second compound 0.0316 µM, first compound 3.16 µM
[12] = second compound 0.0316 µM, first compound 10 µM
[13] = second compound 0.1 µM, first compound 0.0316 µM
[14] = second compound 0.1 µM, first compound 0.1 µM
[15] = second compound 0.1 µM, first compound 0.316 µM
[16] = second compound 0.1 µM, first compound 1 µM
[17] = second compound 0.1 µM, first compound 3.16 µM
[18] = second compound 0.1 µM, first compound 10 µM
[19] = second compound 0.316 µM, first compound 0.0316 µM
[20] = second compound 0.316 µM, first compound 0.1 µM
[21] = second compound 0.316 µM, first compound 0.316 µM
[22] = second compound 0.316 µM, first compound 1 µM
[23] = second compound 0.316 µM, first compound 3.16 µM
[24] = second compound 0.316 µM, first compound 10 µM
[25] = second compound 1 µM, first compound 0.0316 µM
[26] = second compound 1 µM, first compound 0.1 µM
[27] = second compound 1 µM, first compound 0.316 µM
[28] = second compound 1 µM, first compound 1 µM
[29] = second compound 1 µM, first compound 3.16 µM
[30] = second compound 1 µM, first compound 10 µM
[31] = second compound 3.16 µM, first compound 0.0316 µM
[32] = second compound 3.16 µM, first compound 0.1 µM
[33] = second compound 3.16 µM, first compound 0.316 µM
[34] = second compound 3.16 µM, first compound 1 µM
[35] = second compound 3.16 µM, first compound 3.16 µM
[36] = second compound 3.16 µM, first compound 10 µM
[37] = second compound 10 µM, first compound 0.0316 µM
[38] = second compound 10 µM, first compound 0.1 µM
[39] = second compound 10 µM, first compound 0.316 µM
[40] = second compound 10 µM, first compound 1 µM
[41] = second compound 10 µM, first compound 3.16 µM
[42] = second compound 10 µM, first compound 10 µM
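Also: spheroids exposed to compound for 7 days before viability read.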
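For viability, T/C in this document: 100% = DMSO vehicle-treated spheroids.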

With CCCS(=O)(=O)Nc1ccc(F)c(C(=O)c2c[nH]c3ncc(-c4ccc(Cl)cc4)cc23)c1F + Cc1nc(NC(=O)N2CCCC2C(N)=O)sc1-c1ccnc(C(C)(C)C(F)(F)F)c1 the IC50 [1] was 5.56 µM, the IC50 [2] was 5.71 µM and the IC50 [3] was 4.72 µM. The IC50 [4] was < 0.0316 µM, the IC50 [5] was < 0.0316 µM and the IC50 [6] was < 0.0316 µM. It also gave a viability, T/C [7] of 97.5%, a viability, T/C [8] of 91% and a viability, T/C [9] of 97.2%. For the same compound, the viability, T/C [10] was 92.2%, the viability, T/C [11] was 86.9% and the viability, T/C [12] was 11.7%. For the same compound, the viability, T/C [13] was 92.4%, the viability, T/C [14] was 99.3% and the viability, T/C [15] was 99.3%. The viability, T/C [16] was 97.5%, the viability, T/C [17] was 91.8% and the viability, T/C [18] was 10.3%. The viability, T/C [19] was 57.6%, the viability, T/C [20] was 60.3% and the viability, T/C [21] was 73.7%. The viability, T/C [22] was 87.1%, the viability, T/C [23] was 82.2% and the viability, T/C [24] was 8.31%. The viability, T/C [25] was 32.2%, the viability, T/C [26] was 36.7% and the viability, T/C [27] was 40.8%. For the same compound, the viability, T/C [28] was 49%, the viability, T/C [29] was 50.2% and the viability, T/C [30] was 5.09%. The viability, T/C [31] was 15.2%, the viability, T/C [32] was 16.1% and the viability, T/C [33] was 18.9%. The viability, T/C [34] was 21.9%, the viability, T/C [35] was 23.4% and the viability, T/C [36] was 2.52%. The viability, T/C [37] was 3.53%, the viability, T/C [38] was 3.46% and the viability, T/C [39] was 3.9%. It also gave a viability, T/C [40] of 5.16%, a viability, T/C [41] of 5.53% and a viability, T/C [42] of 2.11%.
CC(Cn1ccc(-c2ccc(C#N)c(Cl)c2)n1)NC(=O)c1cc(C(C)O)[nH]n1 (stereo not drawn) + CC(Nc1ncnc2nc[nH]c12)c1cc2cccc(Cl)c2c(=O)n1-c1ccccc1 was tested, and the IC50 [1] was > 10 µM, the IC50 [2] was > 10 µM and the IC50 [3] was > 10 µM. For the same compound, the IC50 [4] was > 10 µM, the IC50 [5] was > 10 µM and the IC50 [6] was 5.12 µM. The viability, T/C [7] was 85.5%, the viability, T/C [8] was 85% and the viability, T/C [9] was 93%. For the same compound, the viability, T/C [10] was 70.3%, the viability, T/C [11] was 68.9% and the viability, T/C [12] was 59.1%. It also gave a viability, T/C [13] of 80.6%, a viability, T/C [14] of 105% and a viability, T/C [15] of 87.8%. For the same compound, the viability, T/C [16] was 77.6%, the viability, T/C [17] was 81% and the viability, T/C [18] was 62.1%. For the same compound, the viability, T/C [19] was 96.3%, the viability, T/C [20] was 94.9% and the viability, T/C [21] was 88.5%. It also gave a viability, T/C [22] of 91.2%, a viability, T/C [23] of 82% and a viability, T/C [24] of 66.7%. The viability, T/C [25] was 104%, the viability, T/C [26] was 93.8% and the viability, T/C [27] was 87.8%. It also gave a viability, T/C [28] of 94.9%, a viability, T/C [29] of 92% and a viability, T/C [30] of 64.7%. It also gave a viability, T/C [31] of 86.7%, a viability, T/C [32] of 93.4% and a viability, T/C [33] of 83.6%. It also gave a viability, T/C [34] of 82.8%, a viability, T/C [35] of 85% and a viability, T/C [36] of 58.9%. For the same compound, the viability, T/C [37] was 60.3%, the viability, T/C [38] was 59.5% and the viability, T/C [39] was 55.9%. It also gave a viability, T/C [40] of 56.2%, a viability, T/C [41] of 57.4% and a viability, T/C [42] of 40.1%.
For Cn1nccc1Nc1nccc(-c2ccn(C(CO)c3ccc(Cl)c(F)c3)c(=O)c2)n1 (stereo not drawn) + Cc1nc(NC(=O)N2CCCC2C(N)=O)sc1-c1ccnc(C(C)(C)C(F)(F)F)c1, the IC50 [1] was 0.297 µM, the IC50 [2] was 0.14 µM and the IC50 [3] was 0.0349 µM. The IC50 [4] was < 0.0316 µM, the IC50 [5] was < 0.0316 µM and the IC50 [6] was < 0.0316 µM. The viability, T/C [7] was 89.8%, the viability, T/C [8] was 73.2% and the viability, T/C [9] was 47.2%. The viability, T/C [10] was 32.1%, the viability, T/C [11] was 23.1% and the viability, T/C [12] was 18.4%. For the same compound, the viability, T/C [13] was 81%, the viability, T/C [14] was 55.8% and the viability, T/C [15] was 36.2%. It also gave a viability, T/C [16] of 24%, a viability, T/C [17] of 18.5% and a viability, T/C [18] of 16.2%. For the same compound, the viability, T/C [19] was 51.1%, the viability, T/C [20] was 37.8% and the viability, T/C [21] was 22.6%. It also gave a viability, T/C [22] of 14.6%, a viability, T/C [23] of 10.9% and a viability, T/C [24] of 8.35%. The viability, T/C [25] was 27.4%, the viability, T/C [26] was 20% and the viability, T/C [27] was 12.5%. It also gave a viability, T/C [28] of 7.16%, a viability, T/C [29] of 5.6% and a viability, T/C [30] of 4.92%. It also gave a viability, T/C [31] of 12.3%, a viability, T/C [32] of 8.08% and a viability, T/C [33] of 4.7%. It also gave a viability, T/C [34] of 3.17%, a viability, T/C [35] of 2.1% and a viability, T/C [36] of 1.72%. For the same compound, the viability, T/C [37] was 2.73%, the viability, T/C [38] was 2.2% and the viability, T/C [39] was 1.3%. For the same compound, the viability, T/C [40] was 0.88%, the viability, T/C [41] was 0.68% and the viability, T/C [42] was 0.53%.
With Cn1nccc1Nc1nccc(-c2ccn(C(CO)c3ccc(Cl)c(F)c3)c(=O)c2)n1 (stereo not drawn) the viability, T/C (compound 0.0316 µM) was 93.8% [middle of 4 runs], the viability, T/C (compound 0.1 µM) was 84.3% [middle of 4 runs] and the viability, T/C (compound 0.316 µM) was 57.5% [middle of 4 runs]. For the same compound, the viability, T/C (compound 1 µM) was 37.7% [middle of 4 runs], the viability, T/C (compound 3.16 µM) was 26.1% [middle of 4 runs] and the viability, T/C (compound 10 µM) was 20.1% and 21.8% and 21.4% (2×). For the same compound, the IC50 (curve of compound) was 502 nM [middle of 4 runs].
